Assay results published in paper PMC9497102, “Thiosemicarbazone Derivatives Developed to Overcome COTI-2 Resistance” (Cancers, 2022).
Like-named read-outs stand apart in the source and are kept apart here.

Tests used:
GLC-4 cells [1] = system: GLC-4 cells; parameters: method as in PMID 33190481; conditions: 72 h, MTT; cited from earlier work
[2] = parameters: method as in PMID 33190481; conditions: after formation of mixed-ligand GSH adduct; cited from earlier work
SW480 cells [3] = assay: Mitotic nuclei by DAPI staining; format: cell-based, human; conditions: 24 h
Procedure: In order to detect mitotic nuclei, fixed cells were stained with DAPI. SW480 and SW480/Coti cells were seeded at a density of 2 × 10^5 cells per well in 6-well plates and left to recover for 24 h. This was followed by drug treatment at the indicated concentrations for 24 h. Then, cells were collected and spun on slides by centrifugation with a Thermo Scientific Cytospin 4 (400 rpm, 5 min at 4 °C). The slides were dried, and the cells were fixed with a methanol/acetone (1:1) mixture at −20 °C and stained with a solution containing DAPI (1 µg/mL). A final washing step with phosphate-buffered saline (PBS) was performed, followed by covering the slides with vectashield (H-100, Vector Laboratories, Inc., Newark, CA, USA) and coverslips. Mitotic nuclei were counted with Image J in three different areas per slide from three independent experiments.

SW480 cells [4] = assay: Cell cycle analysis by PI staining and flow cytometry; format: cell-based, human; conditions: 24 h
Procedure: The cell cycle phases were analyzed by staining the DNA of ethanol-fixed cells with PI, as previously described. SW480 and SW480/Coti cells were seeded at a density of, 2 × 10^5 cells/well in 6-well plates and treated with the indicated concentrations of COTI-2 and COTI-NMe2 for 24 h. Then, cells were collected by trypsinization and fixed in cold 70% ethanol. In order to digest RNA, the cells were treated with RNase (0.2 mg/mL, Sigma) and, subsequently, DNA was stained with PI (1 µg/mL). Fluorescence was measured by flow cytometry (FACS Calibur, Becton Dickinson, Ashland, CA, USA) and cell cycle phases were analyzed using Cell Quest Pro software.

SW480/Coti cells [5] = assay: MTT viability assay, 72 h; format: cell-based, human; conditions: for IC50: Homo sapiens, SW480, 72 h, MTT
Procedure: (§1) In vitro tests were performed with human colorectal cancer SW480 cells (purchased from the American Type Culture Collection, Manassas, VA, USA), SW480/Tria, and the SW480/Coti cells, which are previously established sublines that are resistant to Triapine and COTI-2 [16], respectively. Additionally, small-cell lung carcinoma GLC-4 and its subline GLC-4/adr, which is a doxorubicin-resistant subline overexpressing ABCC1 (purchased from Dr. […], Groningen, The Netherlands), were used. All cells were maintained in a humidified 5% CO2 incubator at 37 °C and grown in minimal essential medium or RPMI-1640, respectively, supplemented with 10% fetal bovine serum (FBS). In order to maintain the resistant phenotype of GLC-4/adr cells, they were selected with doxorubicin (1152 nM) once a month. All cell lines were tested for mycoplasma contamination. For the cytotoxicity, cell viability, and proliferation studies, the 3-(4,5-dimethylthiazol-2-yl)-2,5-diphenyltetrazolium bromide (MTT) assay was utilized. Cells were seeded in 96-well plates at a density of 2 × 10^4 cells/well, with the exception of SW480/Tria, which was used at a density of 3 × 10^4 cells/well. After 24 h of recovery, cells were treated with the indicated concentration of drugs. For the drug combination experiments, verapamil and cyclosporine A (CSA) were used as ABCC1 modulators, and tetrathiomolybdate (TTM) was used as a copper chelator. The TSCs were dissolved in DMSO followed by subsequent dilutions in the medium in order to maintain a final DMSO concentration of <1%. After 72 h, the treatment solution was removed and replaced with 100 μL of MTT solution (EZ4U, Biomedica, Vienna, Austria), which was diluted 1:10 in the growth medium. A TECAN Infinite 200 Pro plate reader was used to measure the absorbance of the solution after 2-3 h incubation at 5% CO2 in an incubator at 37 °C. The anticancer activity was determined with GraphPad Prism software and indicated as IC50 values (half maximum inhibitory concentration).

[6] = Spectrophotometric redox reaction of copper(II) complexes with GSH or AA; format: physicochemical; conditions: 300 equiv. GSH, pH 7.4, after formation of mixed-ligand GSH adduct
Procedure: A Hewlett Packard 8452A diode array spectrophotometer and a special, tightly closed tandem cuvette (Hellma Tandem Cell, 238-QS) were used to monitor the redox reactions of the Cu(II) and Fe(III) complexes with GSH and AA. The spectra were recorded at a physiological pH (pH = 7.4, 50 mM HEPES, I = 0.1 M KCl) when the metal complexes:GSH or AA ratio was 1:300 (ccomplex = 30 μM, cGSH or AA = 9 mM). The stock solutions of the complexes and the GSH and AA solutions were freshly prepared before every measurement. In the first half of the cuvette, the ligand was mixed with the complex, and the other contained the reducing agent. Both isolated parts of the cuvette were deoxygenated with argon for 10 min. The first spectrum was recorded before mixing, and then after mixing, the reduction was usually followed until no further absorbance change was observed.

GLC-4 cells [7] = assay: MTT viability assay, 72 h; format: cell-based; conditions: Homo sapiens, GLC4
Procedure: as §1

[8] = system: GLC-4/adr cells (ABCC1-overexpressing); assay: MTT viability assay, 72 h; format: cell-based
Procedure: as §1

SW480/Coti cells [9] = assay: MTT viability assay with ABCB1/ABCC1 inhibitors verapamil and CSA; format: cell-based, human; conditions: 1 µM CSA and 10 µM verapamil, 72 h
Procedure: For the cytotoxicity, cell viability, and proliferation studies, the 3-(4,5-dimethylthiazol-2-yl)-2,5-diphenyltetrazolium bromide (MTT) assay was utilized. Cells were seeded in 96-well plates at a density of 2 × 10^4 cells/well, with the exception of SW480/Tria, which was used at a density of 3 × 10^4 cells/well. After 24 h of recovery, cells were treated with the indicated concentration of drugs. For the drug combination experiments, verapamil and cyclosporine A (CSA) were used as […] modulators, and tetrathiomolybdate (TTM) was used as a copper chelator. The TSCs were dissolved in DMSO followed by subsequent dilutions in the medium in order to maintain a final DMSO concentration of <1%. After 72 h, the treatment solution was removed and replaced with 100 µL of MTT solution (EZ4U, Biomedica, Vienna, Austria), which was diluted 1:10 in the growth medium. A TECAN Infinite 200 Pro plate reader was used to measure the absorbance of the solution after 2–3 h incubation at 5% CO2 in an incubator at 37 °C. The anticancer activity was determined with GraphPad Prism software and indicated as IC50 values (half maximum inhibitory concentration).

Compound | IC50 (GLC-4 cells [1]) [nM] | redox reaction of the copper(II) complex with GSH [2] | effect on mitotic cell fraction (SW480 cells [3]) | effect on G2/M population (SW480 cells [4]) | IC50 (SW480/Coti cells [5]) [nM] | redox reaction of the copper(II) complex with GSH [6] | IC50 (GLC-4 cells [7]) [nM] | IC50 [8] [nM] | Relative Resistance SW480/Coti (SW480/Coti cells [5]; IC50 of resistant subline divided by IC50 of parental SW480) | impact of verapamil and CSA on activity (SW480/Coti cells [9])
S=C(N/N=C1\CCCc2cccnc21)N1CCN(c2ccccn2)CC1 [COTI-2, 4-(pyridine-2-yl)-N-([(8E)-5,6,7,8-tetrahydroquinolin-8-ylidene]amino)piperazine-1-carbothioamide] | 30 ± 10 | spectra were almost unchanged within 6 h | (complete) loss of the mitotic cell fraction | significant reduction in the G2/M population | – | – | – | – | – | –
CN(C(=S)N/N=C1\CCCc2cccnc21)C1CCCCC1 [COTI-NMeCy, N-Cyclohexyl-2-(6,7-dihydroquinolin-8(5H)-ylidene)-N^4-methylhydrazine-1-carbothioamide] | – | – | – | – | 3980 ± 400 | no measurable spectral changes were seen | 170 ± 100 | 540 ± 150 | – | –
CN(C)C(=S)NN=C1CCCc2cccnc21 (mixture of isomers) [COTI-NMe2, 2-(6,7-Dihydroquinolin-8(5H)-ylidene)-N^4,N^4-dimethylhydrazine-1-carbothioamide] | – | – | (complete) loss of the mitotic cell fraction | significant reduction in the G2/M population | 50 ± 30 | no measurable spectral changes were seen | 30 ± 30 | 60 ± 30 | 1.3 ^n.s. | no relevant impact
